The record followed here is patent US20200062696A1, “COMPOSITIONS AND METHODS FOR INHIBITING RETICULON 4” (THE REGENTS OF THE UNIVERSITY OF CALIFORNIA, priority 2017, published 2020).

The subject of one data set is SW620 tumor xenograft. Description: SW620 tumor xenograft growth in immune-deficient SCID mice. The settings on record: 50 mg/kg ip once per day, started ten days after subcutaneous injection of SW620 cells. Type of data set: in vivo. Here is the method: Tumor Xenograft Growth Studies. C.B17 SCID male mice (6-8 weeks old) were injected subcutaneously into the flank with 2,000,000 cells in serum-free media. For pharmacological treatments, mice were exposed by intraperitoneal (ip) injection with either vehicle (18:1:1 PBS/ethanol/PEG40) or 50 mg/kg DKM 3-30 once per day starting ten days after the initiation of the xenograft experiment and until the completion of the study. Tumors were measured every 7 days by caliper measurements. Animal experiments were conducted in accordance with the guidelines of the Institutional Animal Care and Use Committee of the University of California, Berkeley.

Data set [1] deals with MEF cells expressing human RTN4-GFP. Put plainly: Apoptosis (propidium iodine and Annexin-V, flow cytometry) in MEF cells expressing human RTN4-GFP. Format: cell-based, mouse. The settings on record: DKM 3-30 50 μM, 0, 8 or 16 h. On the procedure: FIG. 12. Effect of DKM 3-30 in Mouse Embryonic Fibroblast (MEF) cells expressing human RTN4. C1101 in human RTN4 is instead a serine in mouse RTN4. […] GFP or RTN4-GFP expressing MEF cells were treated with DKM 3-30 (50 μM) for 0, 8, or 16 h and apoptotic cells (propidium iodine positive and Annexin-V positive) were assessed by flow cytometry. Data are presented as mean±sem. Significance is expressed as *p<0.05 compared to 0 h time-point.

Data set [2] deals with U2OS cells expressing GFP-tagged Sec61β. Put plainly: ER morphology by fluorescence microscopy in U2OS cells expressing GFP-Sec61β. Format: cell-based. Here is the method: (§1) Fluorescence microscopy. SW620 and U2OS cells were transiently transfected with a plasmid encoding GFP-tagged Sec61β using fuGENE6 (Roche) according to the manufacturer's instructions. Transfected cells plated on poly-L-lysine treated coverslips were treated, washed in PBS, and fixed by incubation in 4% paraformaldehyde in PBS for 10 min. Fixed cells were washed extensively in PBS and nuclei stained by addition of 4′,6-diamidino-2-phenylindole (DAPI) (Thermo Fisher Scientific) for 10 min. Coverslips were mounted using Fluoromount-G (SouthernBiotech) and visualized using a DeltaVision Elite microscope outfitted with a 60× oil immersion objective. Acquired stacks of images of fixed cells were deconvolved and analyzed using SoftWoRx and ImageJ. For time-lapse imaging of live cells, transfected cells were plated on poly-L-lysine treated glass-bottom 4-well imaging chambers (Lab-Tek II; Thermo Fisher Scientific). Imaging was performed using a DeltaVision Elite microscope encased in a chamber that was maintained at 37° C. and was continuously perfused with humidified 5% CO2. Acquired images were analyzed using SoftWoRx and ImageJ.

The subject of data set [3] is SW620 cells expressing GFP-tagged Sec61β. Put plainly: ER morphology by fluorescence microscopy in SW620 cells expressing GFP-Sec61β. Format: cell-based. The settings on record: DKM 3-30 50 μM. Here is the method: FIG. 8. ER Morphology in SW620 Colorectal Cancer Cells. SW620 cells expressing GFP-tagged Sec61β were treated with DKM 3-30 (50 μM) for the indicated times and the ER (light gray/white) and nuclear (dark gray) morphology visualized by fluorescence microscopy.
as §1

Data set [4] relates to SW620 colorectal cancer cells. Put plainly: Cell proliferation of SW620 cells (Hoescht staining). The settings on record: 48 h, vs DMSO, average of n = 3/group. Format: cell-based. Here is the method:
Cell Culture. SW620 cells were purchased from ATCC. SW620 cells were grown in L-15 media with 10% fetal bovine serum (FBS) in ambient CO2. U2OS cells were grown in DMEM media supplemented with 10% FBS at 37° C. with 5% CO2.
Survival and Proliferation Assays. Cells were plated the evening before the experiment, and allowed to adhere overnight. For serum-free cell survival assays, cells were plated in media not containing FBS. For cell proliferation assays, cells were plated in regular media. For the chemical genetics screen, cells were treated with either DMSO or the cysteine-reactive fragment for 48 h and cell viability was assessed by Hoescht stain using our previously described methods

Data set [5] in a line: Body weight and overt toxicity of mice in the tumor xenograft study. The settings on record: 50 mg/kg ip once per day, weighed at the end of the study. Type of data set: in vivo.
Procedure: Mice from tumor xenograft studies shown in FIG. 1E were weighed at the end of the study. […] Data are presented as mean±sem, n=8 mice/group.
Tumor Xenograft Growth Studies. C.B17 SCID male mice (6-8 weeks old) were injected subcutaneously into the flank with 2,000,000 cells in serum-free media. […] Tumors were measured every 7 days by caliper measurements.

Structures are written as SMILES.

In the case of `C=CC(=O)Nc1ccc(Oc2ccc(Cl)cc2)cc1` [DKM 3-30, N-(4-(4-chlorophenoxy)phenyl)acrylamide], the tumor xenograft growth entry in the data set with SW620 tumor xenograft is “initial regression and a sustained impairment in tumor growth”. Further, the “apoptosis in MEF cells expressing human RTN4-GFP” value in data set [1] is recorded as “induces apoptosis”. Also, in data set [2] (DKM 3-30 50 μM (8 hr, 16 hr, time-lapse), AMR 1-125 1 μM, YP 1-46 50 μM), the “ER morphology in U2OS cells” value was “striking loss of nearly all peripheral ER tubules and an increase in ER that exhibited sheet-like morphology”. Besides, in data set [2] (DKM 3-30 50 μM, time-lapse imaging), the “time at which alterations in the ER morphology were evident” value is given as 0.5-1 hr. In addition, the “ER morphology in SW620 cells” value in data set [3] is “suggest alterations in the ER morphology”. Besides, in data set [4] (Homo sapiens, SW-620, cysteine-reactive fragment 50 μM, read-out: SW620 proliferation Ave), the activity at 50 µM came out at 54%. In addition, in data set [4] (cysteine-reactive fragment 50 μM), the “SW620 proliferation Ave” value is reported as “significantly impaired”. In addition, the “body weight and signs of overt toxicity” value in data set [5] is “without any changes in body weight or any signs of overt toxicity”.
